# Measured values taken from PubChem BioAssay (NCI).
#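 Briefly, cells in 96-well plates were exposed to five compound concentrations for 48 h, and endpoints were estimated by linear interpolation. TGI: total growth inhibition.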
# Key:
# Test in all cases: NCI anticancer screen, dose series, 48 h
# [1] = test system: A498 renal
# [2] = test system: NCI-H522 lung
# [3] = test system: OVCAR-4 ovarian
# [4] = test system: SK-MEL-28 melanoma
# [5] = test system: SK-OV-3 ovarian
# [6] = test system: SN12C renal
# [7] = test system: SNB-75 CNS
# [8] = test system: U251 CNS
# [9] = test system: SF-268 CNS
Structure (SMILES),TGI [1] [µM],TGI [2] [µM],TGI [3] [µM],TGI [4] [µM],TGI [5] [µM],TGI [6] [µM],TGI [7] [µM],TGI [8] [µM],TGI [9] [µM]
c1ccc(C(NCC2CCO2)(c2ccccc2)c2ccccc2)cc1 (centres undefined),36.1,28.1,30.2,> 100,34.2,51.3,28.8,54,
CC1=NC2=Nc3nc(C)cc[n+]3CN2C=C1,> 100,> 100,> 100,> 100,> 100,> 100,> 100,> 100,> 100
CN(C)CCNC(=O)c1ccc(NCCCN(C)CCCNc2ccc(C(=O)NCCN(C)C)c3[nH]c4ccccc4c(=O)c23)c2c(=O)c3ccccc3[nH]c12,0.502,0.143,0.247,1.23,0.427,0.397,0.0844,0.247,0.271
CSc1ccc(-c2cc(-c3nc4ccccc4[nH]3)no2)cc1,> 100,69.5,19.3,> 100,> 100,> 100,> 100,,> 100
O=CNNC(=O)Nc1cccc2ccccc12,,,> 100,> 100,> 100,> 100,> 100,> 100,> 100
Cc1c2c3ccccc3nc-2n(C)c2ccccc12,,,,12.5,7.22,6.97,7.75,12.7,19.1
O=C1CC(c2ccccc2)C2(C(=O)NC(=S)NC2=O)C(c2ccccc2)C1 (centres undefined),,> 75,> 75,> 75,,> 75,> 75,> 75,> 75
O=C(NCCN1CCOCC1)c1cn2c(ccc3sc4ccccc4c(=O)c32)n1,> 100,> 100,,> 100,,> 100,59.4,21.6,> 100
COc1cc2c(cc1OC)C(=O)N(c1ccc(O)cc1)C2=O,> 100,> 100,> 100,> 100,> 100,> 100,,> 100,> 100
C=C1C(=O)O[C@H]2C[C@@]3(COC(C)=O)C=COC=C(COC(=O)C(C)C)C3CC12 (some centres undefined),,> 100,,> 100,,> 100,67.5,> 100,
Cc1ccc(NC=O)c(-c2c(N)[nH]c(=S)[nH]c2=O)c1,> 100,> 100,,,91.7,> 100,> 100,,> 100
O=S(=O)(O)c1cc(N=Nc2c(O)ccc3ccccc23)ccc1/C=C/c1ccc(N=Nc2c(O)ccc3ccccc23)cc1S(=O)(=O)O,,> 100,> 100,> 100,> 100,> 100,> 100,> 100,> 100
O=C(O)CCC(=O)c1ccc2c(c1)C(C(=O)O)CC2 (centres undefined),> 100,> 100,> 100,> 100,> 100,> 100,,> 100,> 100
Cc1ccc(SC2C(=O)C3CC(OCc4ccccc4)C2(C)C3(C)C)cc1 (centres undefined),> 100,,,> 100,> 100,> 100,,> 100,> 100
COc1ccc2nc(-c3ccccc3)cc(OCC(=O)O)c2c1,> 100,> 100,,> 100,> 100,> 100,> 100,> 100,> 100
OC1(c2ccc(-c3ccccc3)cc2)c2ccccc2C2=NCCN21 (centres undefined),> 100,,> 100,80.6,> 100,> 100,48.9,> 100,> 100
CC[C@@]1(O)C(=O)OCc2c1cc1n(c2=O)Cc2c-1nc1ccccc1c2/C=N\NC(=O)C1CCCN1 (some centres undefined),2.58,,> 100,> 100,> 100,> 48.2,1.8,11.2,3.96
CCN1CCC(O)(c2ccc(Oc3ccc(F)cc3)cc2)C(C(=O)c2ccc(Oc3ccc(F)cc3)cc2)C1 (centres undefined),,,29,30.5,32.2,27.5,30.3,30.1,34.9
CO/N=C(/C)c1cccc(Nc2nc3ccccc3c3[nH]c4ccccc4c23)c1,,9.61,,,40.3,25,18.6,30.9,25.7
